According to patent US20260242416A1, “ANTIMICROBIAL PEPTIDES” (priority 2023, published 2026):
In brackets after ≈: the same amount, converted by molar mass. Entries after “also recorded” stand apart in the source; their conditions may differ. Where a SMILES comes first, the peptide text is derived from it.

What was measured:
[1] = test system: E. coli ATCC 25922, Salmonella Enteritidis, S. aureus ATCC 29213; assay: Broth microdilution, panel result (at least one / all strains), Example 2; assay type: cell-based; design: key to inhibitory activity (asterisk): *Indicates inhibitory activity; conditions: Table 14; against at least one of E. coli ATCC 25922, Salmonella Enteritidis, S. aureus ATCC 29213
Outline: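 CLSI broth microdilution adapted for cationic peptides, in MHB with a final inoculum of 2-8×10^5 cfu/mL in polypropylene plates. Peptides were serially diluted from 128 down to 0.5 μg/mL and incubated 20-24 h at 37° C. MIC is the lowest concentration with no visible growth.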

[2] = test system: Escherichia coli ATCC 25922; assay: Antimicrobial susceptibility testing (MIC/MBC), Example 1; assay type: cell-based; conditions: Table 3; footnote: wild-type Escherichia coli ATCC 29522; minimum of three independent experiments
Description: Twenty-one putative AMP sequences identified using the rAMPage pipeline were validated through a minimum of three AST experiments performed independently on separate days. In these tests, the AMP activity was assessed using two metrics: minimum inhibitory concentration and minimum bactericidal concentration (MIC and MBC, respectively). MIC and MBC values were determined using procedures outlined by the Clinical and Laboratory Standards Institute (CLSI), with the recommended adaptations for the testing of cationic AMPs described previously. “Wild-type” strains of Escherichia coli (E. coli 25922) and Staphylococcus aureus (S. aureus 29213) were purchased from the American Type Culture Collection (ATCC; Manassas, VA, USA) and were used for screening of antimicrobial activity. Briefly, putative AMPs were synthesized by Genscript (Piscataway, NJ, USA) and received in lyophilized format. These peptides were suspended using ultrapure water (Life Technologies, Grand Island, NY, USA; Invitrogen cat #10977-015), and an 11 μL two-fold serial dilution of 1280 to 2.5 μg/mL was prepared in duplicate rows in a 96-well microtiter plate, before being combined with 100 μL standardized bacterial inoculum yielding a final duplicate testing range of 128 to 0.25 μg/mL. The bacterial inoculum was prepared using colonies isolated on non-selective agar and combined with Mueller Hinton Broth. This suspension was measured and adjusted to achieve an optical density of 0.08-0.1, equivalent to a 0.5 McFarland standard (1-2×10^8 cfu/mL). The inoculum was then diluted to a target concentration of 5±3×10^5 cfu/mL; total viable counts from the final inoculum were routinely performed to confirm the target bacterial density was achieved. […] The MIC and adjacent wells were plated onto non-selective agar; the concentration in which killed 99.9% of the inoculum following additional overnight incubation was determined to be the MBC.

E. coli ATCC 25922 = assay type: cell-based, Escherichia coli; conditions: for MIC (ug/mL) E. coli: Table 14, first value of the cell, three independent experiments, highest concentration tested 128
Outline: (§1)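 MIC taken as lowest peptide level showing no visible growth after 20-24 h at 37° C. Twofold series 128-0.5 μg/mL in Mueller-Hinton broth, polypropylene plates, final inoculum 2-8×10^5 cfu/mL, per CLSI with cationic-peptide adaptations.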

HEK293 cells = assay: alamarBlue cell viability assay (cytotoxicity); assay type: cell-based, human; conditions: concentrations up to 128 μg/mL
Description: (§2) The human embryonic kidney cell line HEK293 and the corresponding growth media and supplements were purchased from the ATCC. The cells were maintained in Eagle's Minimum Essential Medium (EMEM) supplemented with 10% fetal bovine serum (FBS) and 1% Penicillin-Streptomycin solution and grown in a 5% CO2 incubator at 37° C. […] Cells were incubated overnight to allow them to adhere. […] TX-100 was diluted to 2% in UltraPure deionized water and added as a positive control. Complete growth medium was added to the peptides and TX-100 containing wells. Spent growth medium of wells with adhered cells was replaced with the contents of wells containing serially diluted peptides or TX-100. Cells were incubated for four hours at 37° C. in 5% CO2 incubator. Growth medium containing peptides or TX-100 was replaced with fresh growth medium containing 10% (v/v) alamarBlue (Bio-Rad Laboratories, Hercules, CA, USA) and incubated for 20 h. Fluorescence was measured at excitation of 540 nm and emission of 590 nm in a Cytation 5 plate reader (Agilent BioTek, Winooski, VT, USA) and results recorded and analyzed with Gen5 software (Agilent BioTek, Winooski, VT, USA). The average fluorescence reads of TX-100 and growth media only wells were used to calculate 0% and 100% cell viability, respectively. The percentage of viable cells at each peptide concentration was determined by Formula 1: […]

[3] = alamarBlue cell viability assay (cytotoxicity); assay type: cell-based, human; conditions: human, HEK293 cells, at 128 μg/mL
Description: as §2

[4] = test system: Salmonella enterica serovar Enteritidis (human clinical isolate); assay type: cell-based; conditions: for MIC (ug/mL) S. Enteritidis: Table 14, second value of the cell, three independent experiments, highest concentration tested 128
Outline: as §1

[5] = test system: Staphylococcus aureus ATCC 29213; assay type: cell-based; conditions: Table 3; wild-type Staphylococcus aureus ATCC 29213; minimum of three independent experiments
Description: Twenty-one putative AMP sequences identified using the rAMPage pipeline were validated through a minimum of three AST experiments performed independently on separate days. In these tests, the AMP activity was assessed using two metrics: minimum inhibitory concentration and minimum bactericidal concentration (MIC and MBC, respectively). MIC and MBC values were determined using procedures outlined by the Clinical and Laboratory Standards Institute (CLSI), with the recommended adaptations for the testing of cationic AMPs described previously. “Wild-type” strains of Escherichia coli (E. coli 25922) and Staphylococcus aureus (S. aureus 29213) were purchased from the American Type Culture Collection (ATCC; Manassas, VA, USA) and were used for screening of antimicrobial activity. Briefly, putative AMPs were synthesized by Genscript (Piscataway, NJ, USA) and received in lyophilized format. […] This suspension was measured and adjusted to achieve an optical density of 0.08-0.1, equivalent to a 0.5 McFarland standard (1-2×10^8 cfu/mL). […]

porcine red blood cells = assay: Hemolysis assay (HC50), Example 2; conditions: up to 128 μg/mL
Description: Peptides were evaluated for toxicity using three independent hemolysis experiments. Whole blood from healthy donor pigs, supplemented with Na Citrate, was purchased from Lampire Biological Laboratories (Pipersville, PA, USA). Red blood cells (RBCs) were washed and isolated by three centrifugation cycles using Roswell Park Memorial Institute medium (RPMI; Thermo-Fisher Scientific) to create a 1% (v/v) RBC solution. […] Following a minimum 30 min incubation at 37° C., plates were centrifuged and % volume from each supernatant was transferred to a new 96-well plate. The absorbance of these wells was measured at 415 nm. To quantify hemolytic activity and determine the AMP concentration that lyses 50% of the RBCs (HC50), absorbance reading from wells containing RBCs treated with 11 μL of a 2% TritonX-100 detergent solution (TX-100) or RPMI (AMP solvent-only) were used to define 100% and 0% hemolysis, respectively. All centrifugation steps were performed at 500× g for five minutes in an Allegra-6R centrifuge (Beckman Coulter, Brea, CA, USA).

S. aureus ATCC 29213 = assay type: cell-based, Staphylococcus aureus; conditions: Table 14, third value of the cell; three independent experiments; highest concentration tested 128
Outline: as §1

CC[C@H](C)[C@H](NC(=O)CN)C(=O)N[C@@H](CC(C)C)C(=O)N[C@H](C(=O)N[C@@H](CC(=O)O)C(=O)N[C@H](C(=O)N[C@@H](CC(C)C)C(=O)N[C@@H](CCCCN)C(=O)NCC(=O)N[C@@H](C)C(=O)N[C@@H](C)C(=O)N[C@@H](CCCCN)C(=O)N[C@@H](CC(N)=O)C(=O)N[C@H](C(=O)N[C@@H](C)C(=O)NCC(=O)N[C@H](C(=O)N[C@@H](CC(C)C)C(=O)N[C@@H](CC(C)C)C(=O)N[C@@H](CC(=O)O)C(=O)N[C@@H](CCCCN)C(=O)N[C@@H](CC(C)C)C(=O)N[C@@H](CCCCN)C(=O)N[C@@H](CS)C(=O)N[C@@H](CCCCN)C(=O)N[C@H](C(=O)N[C@H](C(=O)NCC(=O)NCC(=O)N[C@@H](CS)C(=O)O)[C@@H](C)O)[C@@H](C)CC)C(C)C)C(C)C)[C@@H](C)O)[C@@H](C)O [PeNi11] (H-GILTDTLKGAAKNVAGVLLDKLKCKITGGC-OH; N-terminus and C-terminus assumed)
inhibitory activity (asterisk) [1]: 1087.* GILTDTLKGAAKNVAGVLLDKLKCKITGGC | MIC* (μg/mL) E. coli [2]: 8 to 16 µg⁻¹ mL⁻¹

CC[C@H](C)[C@H](NC(=O)[C@H](CCCCN)NC(=O)[C@H](CC(=O)O)NC(=O)[C@H](CC(C)C)NC(=O)[C@@H](NC(=O)CNC(=O)[C@@H](NC(=O)[C@H](CO)NC(=O)[C@H](Cc1ccccc1)NC(=O)[C@H](CC(N)=O)NC(=O)[C@H](CCCCN)NC(=O)[C@@H](NC(=O)CNC(=O)[C@H](CCC(=O)O)NC(=O)[C@H](CCCCN)NC(=O)[C@@H](NC(=O)[C@@H](NC(=O)[C@@H](NC(=O)[C@H](Cc1c[nH]c2ccccc12)NC(=O)[C@H](CC(C)C)NC(=O)CN)[C@@H](C)O)[C@@H](C)O)[C@@H](C)CC)C(C)C)C(C)C)C(C)C)C(=O)N[C@@H](CCCNC(=N)N)C(=O)N[C@@H](CS)C(=O)N[C@@H](CCCCN)C(=O)N[C@H](C(=O)N[C@H](C(=O)NCC(=O)NCC(=O)N[C@@H](CS)C(=O)O)[C@@H](C)O)[C@@H](C)CC [PeNi14] (H-GLWTTIKEGVKNFSVGVLDKIRCKITGGC-OH; N-terminus and C-terminus assumed)
inhibitory activity (asterisk) [1]: 15.* GLWTTIKEGVKNFSVGVLDKIRCKITGGC | MIC* (μg/mL) E. coli [2]: 4 to 8 µg⁻¹ mL⁻¹

CC[C@H](C)[C@H](NC(=O)[C@@H](N)CCCCN)C(=O)N[C@@H](CCCCN)C(=O)N[C@H](C(=O)N1CCC[C@H]1C(=O)N[C@@H](Cc1c[nH]c2ccccc12)C(=O)NCC(=O)N[C@@H](CCCCN)C(=O)N[C@H](C(=O)N[C@@H](CCCCN)C(=O)N[C@@H](CC(=O)O)C(=O)N[C@@H](Cc1ccccc1)C(=O)N[C@@H](CC(C)C)C(=O)N[C@H](C(=O)NCC(=O)NCC(=O)N[C@@H](CCSC)C(=O)N[C@@H](CCCCN)C(=O)N[C@@H](C)C(=O)N[C@H](C(=O)NCC(=O)N[C@@H](CCCCN)C(=O)N[C@@H](CCCCN)C(=O)O)C(C)C)C(C)C)C(C)C)[C@@H](C)CC [TeBi1] (H-KIKIPWGKVKDFLVGGMKAVGKK-OH)
MIC against E. coli (E. coli ATCC 25922): 1 to 2 µg/mL | MIC (ug/mL) E. coli (E. coli ATCC 25922): 1 to 2 µg/mL | cytotoxicity (HEK293 cells): low or no cytotoxicity at lower concentrations; also recorded: high levels of cytotoxicity at concentrations higher than their MICs | viability at 4 h, 128 µg/mL [3]: 40% | MIC (ug/mL) S. Enteritidis [4]: 4 to 8 µg/mL | MIC* (μg/mL) S. aureus [5]: 2 to 8 µg/mL | hemolytic activity (porcine red blood cells): not hemolytic at the concentrations tested | MIC (ug/mL) S. aureus (S. aureus ATCC 29213): 4 to 8 µg/mL

CC(C)C[C@H](NC(=O)[C@H](CCCCN)NC(=O)[C@H](CCC(=O)O)NC(=O)[C@H](CC(C)C)NC(=O)[C@H](CCCNC(=N)N)NC(=O)[C@@H](NC(=O)[C@H](Cc1ccc(O)cc1)NC(=O)[C@H](CC(N)=O)NC(=O)[C@H](CCCCN)NC(=O)[C@H](CCCCN)NC(=O)[C@H](CC(N)=O)NC(=O)[C@@H](NC(=O)[C@H](CC(C)C)NC(=O)[C@H](CCCCN)NC(=O)[C@H](CCCCN)NC(=O)[C@@H](NC(=O)[C@H](CO)NC(=O)[C@H](CCCCN)NC(=O)[C@H](CO)NC(=O)[C@H](CC(C)C)NC(=O)[C@H](Cc1c[nH]c2ccccc12)NC(=O)[C@@H](N)CO)C(C)C)C(C)C)[C@@H](C)O)C(=O)N[C@@H](C)C(=O)N[C@@H](CCCCN)C(=O)N[C@@H](CCCCN)C(=O)N[C@@H](CCCCN)C(=O)N[C@@H](CC(C)C)C(=O)N[C@@H](Cc1ccccc1)C(=O)N[C@@H](CC(N)=O)C(=O)N[C@@H](CCC(=O)O)C(=O)O [TeRu4] (H-SWLSKSVKKLVNKKNYTRLEKLAKKKLFNE-OH)
MIC (ug/mL) E. coli (E. coli ATCC 25922): 1 µg/mL (≈ 0.276 µM) | cytotoxicity (HEK293 cells): not to be toxic to HEK293 cells at any of the concentrations tested; also recorded: not toxic against either porcine erythrocytes or HEK293 cells | MIC against Salmonella Enteritidis [4]: 2 to 4 µg/mL | MIC (ug/mL) S. Enteritidis [4]: 2 to 4 µg/mL | MIC* (μg/mL) S. aureus [5]: >128 µg/mL | hemolytic activity (porcine red blood cells): not hemolytic at the concentrations tested; also recorded: not toxic against either porcine erythrocytes or HEK293 cells | MIC (ug/mL) S. aureus (S. aureus ATCC 29213): > 128 µg/mL
